# US9688708B2, “Photolabile compounds” (The Trustees of Columbia University In The City of New York, priority 2003, dated 2017)
# Like-named read-outs stand apart in the source and are kept apart here.
# Tests used:
# mouse cortical neuron = assay: Whole-cell patch-clamp of mouse cortical neuron, perfusion of TzGly; assay type: cell-based; conditions: 1 μM
# From the text: FIGS. 13A and 13B: FIG. 13A depicts the structure of TzGly. […] The measurement results were obtained by the whole-cell patch-clamp method, as known and used in the art.
# [1] = tested on: Retzius (Rz) cells in the ganglion; assay: Intracellular voltage recording of leech ganglion neuron with Xe flash irradiation; assay type: cell-based, Hirudo medicinalis; conditions: for action potential activity on addition to saline, before irradiation: ~100 μM in saline, no light flash; for action potential activity after light flash: pulsed Xe lamp flash, UV removed by band-pass filter at 500 nm
# Method: Hirudo medicinalis has a central nerve cord with several ganglia, each one containing about 400 neurons arranged in a known pattern. (W.-R. Schlue et al., 1980, J. Exp. Biol., 82:23-34). An entire ganglion was mounted on a dish. The transmembrane potential for a single cell (a neuron) in the ganglion was recorded by inserting inside the neuron a glass micropipet with a micrometer-sized end, filled with saturated aqueous KCl that acts as a luggin bridge for an Ag/AgCl electrode. Another Ag/AgCl electrode was used as a reference. The signal was taken with an AM-System 1600 amplifier, and the entire setup was covered with a Faraday cage. A 12 bit A/D acquisition card was used to digitize the data using an ad-hoc program written in QuickBasic.
# Low Ca^2+-high Mg^2+ saline solution (NaCl, 102 mM; KCl, 4 mM; CaCl2: 1 mM; and MgCl2: 10 mM; Tris base, pH 5.4 adjusted to 7.4) was perfused through the dish. […] A pulsed Xe lamp located under the dish was used to irradiate the solution. UV light was removed using a band-pass filter at 500 nm.
# After impaling the cell with an electrode, many experiments were performed on the same cell to ensure reproducibility. […] 300 seconds later, at 5500 s, a light flash was directed to the ganglion.
# [2] = UV-vis spectra of Ru(bpy)2(4AP)2 before and after photolysis; dark stability and recombination; assay type: physicochemical
# Method: The photoproducts after exposure to light were Ru(bpy)2(4AP)(H2O) and free 4AP.
# (§1) UV-vis spectra in water were obtained with an HP 8453 diode array spectrophotometer. RMN ^1H spectra were obtained using a Bruker 500 MHz equipment. CV measurements were performed with a PAR 273A potentiostat. Irradiation was effected by means of a pulsed Xe lamp, (pulse energy ˜0.5 J), with a low-pass filter at 480 nm. Irradiation using a 473 nm DPSS laser gave similar results.
# [3] = 1H NMR before and after irradiation with visible light (photorelease of 4AP); assay type: physicochemical; conditions: after irradiation with visible light, from NMR signal integration
# Method: as §1
# Although at pH 7 the spectrum of the irradiated complex is very similar to that of the original complex, a diminished shoulder at 470 nm becomes evident. To determine the nature of the photoreaction, NMR spectra were taken before and after irradiation with visible light. […] After irradiation, this signal decreased, and two new signals appeared at lower fields: one corresponding to the free ligand (m3), and the other corresponding to the aquo-4AP complex (m2), indicating photorelease of the 4AP. These two latter signals integrated for 0.30 and 0.27 of the initial signal, which corresponds to a photoreaction of 60%.
# [4] = Cyclic voltammetry in water, RuIII/RuII redox potential; assay type: physicochemical; conditions: measured in water
# Method: The supporting electrolyte was KNO3 (1 M). dE/dt=100 mV/s in glassy carbon electrode.
# as §1
# (§2) (See, e.g., E. S. Dodsworth et al., 1986, Chem. Phys. Lett., 124:152-158). The photoactivity of these compounds has been explained in terms of a reaction pathway that involves the transition between the MLCT state to a lower-energy d-d state, which promotes ligand release. There is a direct correspondence between the energy of the MLCT transition and the quantum yield of the photoreaction. For [Ru(bpy)2(4AP)CH3CN]^2+, the photoreaction yield is about φPR=0.4. Since [Ru(bpy)2(4AP)2]Cl2 presents a red-shifted band, a lower photoreaction yield is expected. An estimate based on early experiments leads to an estimate of φPR≅0.02 at 473 nm.
# [5] = Quantum yield of the photoreaction; assay type: physicochemical
# From the text: as §2
# [6] = Photorelease of TzGly by localized irradiation; assay type: physicochemical; conditions: irradiation at 470 nm, light spot diameter <1 micron
molecule,measurement,setting,value
"NC(C(=O)O)c1nnn[nH]1 (racemic) [TzGly, (RS)-(tetrazol-5-yl)glycine]",neuron spiking on addition via perfusion,mouse cortical neuron,spiking of a mouse cortical neuron
"[Cl][Ru][Cl].c1ccc(-c2ccccn2)nc1.c1ccc(-c2ccccn2)nc1.c1ccc(-c2ccccn2)nc1 [Ru(bpy)3Cl2, reference compound]","action potential activity on addition to saline, before irradiation",[1],without significant changes in activity
same,action potential activity after light flash,[1]; ~100 μM,after a short time the activity decreased to the basal level
[Ru(bpy)2(4AP)2]Cl2,time without dark decomposition,"[2]; in the dark, UV-vis",more than 20 hours
same,4AP recombination,[2]; irradiated solution after 7 hours in the dark,less than 4%
same,photoreaction (photorelease of 4AP),[3],60%
same,redox potential of the couple RuIII/RuII,[4],0.76 V versus Ag/AgCl
same,photoreaction yield φPR,"[5]; at 473 nm, estimate based on early experiments",~0.02
same,"action potential activity on addition to saline, before irradiation",[1],the activity remained unchanged
same,action potential activity after light flash,[1]; ~100 μM,sudden activity was recorded and it remained high after 300 s
same,action potential activity after second light pulse,"[1]; ~100 μM, second light pulse at 6750 s",an even higher activity
[Ru(bpy)2(4AP)CH3CN]^2+,photoreaction yield φPR,[5],~0.4
[Ru(bpy)2(TzGly)(py)]Cl2,photorelease on irradiation,[6],photoreleased TzGly
